Target: NaV 1.8 channel (Homo sapiens, UniProt Q9Y5Y9)
Experiment: Activity against NaV 1.8 channel (optical membrane potential assay)
Format: cell-based
Outline: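 FRET membrane-potential assay (coumarin CC2-DMPE donor, oxonol DiSBAC2(3) acceptor plus veratridine) on VIPR; compound added with oxonol for 20–30 min before Na+ add-back stimulation. Activity from background-subtracted 460/580 nm ratio change (baseline 2–7 s, response 15–24 s) relative to tetracaine positive and drug-free negative controls.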

Chain of NaV 1.8 channel (Q9Y5Y9 whole entry): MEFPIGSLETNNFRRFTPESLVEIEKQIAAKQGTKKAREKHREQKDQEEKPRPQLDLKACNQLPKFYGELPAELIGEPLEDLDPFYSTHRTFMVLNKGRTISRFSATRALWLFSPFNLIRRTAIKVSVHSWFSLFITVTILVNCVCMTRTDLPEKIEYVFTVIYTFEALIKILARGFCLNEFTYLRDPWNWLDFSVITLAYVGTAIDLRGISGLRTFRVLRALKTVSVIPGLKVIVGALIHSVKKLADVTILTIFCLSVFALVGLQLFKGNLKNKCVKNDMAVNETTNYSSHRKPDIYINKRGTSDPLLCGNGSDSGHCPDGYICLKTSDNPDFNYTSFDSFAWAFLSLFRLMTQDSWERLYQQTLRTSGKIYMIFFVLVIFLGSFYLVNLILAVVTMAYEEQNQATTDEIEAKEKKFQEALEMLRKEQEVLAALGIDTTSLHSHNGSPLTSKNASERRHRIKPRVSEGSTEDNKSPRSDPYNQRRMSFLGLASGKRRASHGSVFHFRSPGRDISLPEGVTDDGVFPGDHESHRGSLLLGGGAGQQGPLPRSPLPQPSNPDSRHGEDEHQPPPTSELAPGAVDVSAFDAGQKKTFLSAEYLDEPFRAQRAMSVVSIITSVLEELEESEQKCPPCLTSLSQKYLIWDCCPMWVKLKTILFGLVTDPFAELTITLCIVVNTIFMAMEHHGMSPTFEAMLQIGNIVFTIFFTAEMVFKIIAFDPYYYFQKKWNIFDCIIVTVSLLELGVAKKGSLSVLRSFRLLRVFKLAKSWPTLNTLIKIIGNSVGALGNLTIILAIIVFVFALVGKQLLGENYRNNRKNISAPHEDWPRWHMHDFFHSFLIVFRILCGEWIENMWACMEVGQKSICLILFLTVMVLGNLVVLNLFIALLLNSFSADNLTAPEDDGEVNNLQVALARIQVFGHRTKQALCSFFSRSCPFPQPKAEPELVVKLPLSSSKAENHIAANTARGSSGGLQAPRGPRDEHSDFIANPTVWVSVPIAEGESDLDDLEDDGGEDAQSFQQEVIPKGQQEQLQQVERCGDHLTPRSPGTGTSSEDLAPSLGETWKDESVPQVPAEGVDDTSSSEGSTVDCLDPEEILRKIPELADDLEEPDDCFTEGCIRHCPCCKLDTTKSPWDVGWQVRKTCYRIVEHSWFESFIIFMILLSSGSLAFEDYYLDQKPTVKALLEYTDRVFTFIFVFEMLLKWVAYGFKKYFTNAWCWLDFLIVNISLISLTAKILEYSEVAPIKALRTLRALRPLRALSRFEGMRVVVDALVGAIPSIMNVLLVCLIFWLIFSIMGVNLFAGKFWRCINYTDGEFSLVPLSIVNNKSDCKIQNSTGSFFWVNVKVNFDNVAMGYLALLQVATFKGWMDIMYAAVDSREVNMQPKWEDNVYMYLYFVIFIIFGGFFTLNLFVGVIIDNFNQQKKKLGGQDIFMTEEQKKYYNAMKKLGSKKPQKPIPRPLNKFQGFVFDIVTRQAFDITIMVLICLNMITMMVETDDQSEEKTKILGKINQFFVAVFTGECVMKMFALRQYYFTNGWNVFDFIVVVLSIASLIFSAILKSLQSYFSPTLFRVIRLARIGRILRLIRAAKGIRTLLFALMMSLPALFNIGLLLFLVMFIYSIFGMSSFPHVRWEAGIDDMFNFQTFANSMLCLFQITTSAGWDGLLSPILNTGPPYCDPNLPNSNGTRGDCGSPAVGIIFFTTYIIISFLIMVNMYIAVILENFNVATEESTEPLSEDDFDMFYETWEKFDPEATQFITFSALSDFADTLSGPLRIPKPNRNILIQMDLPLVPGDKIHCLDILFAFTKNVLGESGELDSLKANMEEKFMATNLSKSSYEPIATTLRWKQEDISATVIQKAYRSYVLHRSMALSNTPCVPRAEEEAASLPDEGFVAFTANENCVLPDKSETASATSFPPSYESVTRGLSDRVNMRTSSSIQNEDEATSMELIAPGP

| Structure (SMILES) | IC50 [µM] |
| --- | --- |
| Cc1ccc2c(N3CCN(C(=O)C(O)c4ccc(F)cc4)CC3)nc(-c3c(O)cccc3F)nc2c1 (stereo not drawn) [Example 167, 1-(4-(2-(2-Fluoro-6-hydroxyphenyl)-7-methylquinazolin-4-yl)piperazin-1-yl)-2-(4-fluorophenyl)-2-hydroxyethanone] | > 10 |
| CCC(O)(CC)C(=O)NC1CCN(c2nc(-c3ccccc3O)nc3cc(C)ccc23)CC1 [Example 234, 2-Ethyl-2-hydroxy-N-(1-(2-(2-hydroxyphenyl)-7-methylquinazolin-4-yl)piperidin-4-yl)butanamide] | > 10 |
| Cc1ccc2c(N3CCC[C@@H](CNC(=O)OC(C)C)C3)nc(-c3ccccc3O)nc2c1 [Example 255, Isopropyl ((S)-1-(2-(2-hydroxyphenyl)-7-methylquinazolin-4-yl)piperidin-3-yl)methylcarbamate] | > 10 |
| Cc1ccc2c(N3CCN(C(=O)CCN4CCCCC4)CC3)nc(-c3ccccc3O)nc2c1 [Example 175, 1-(4-(2-(2-Hydroxyphenyl)-7-methylquinazolin-4-yl)piperazin-1-yl)-3-(piperidin-1-yl)propan-1-one] | > 10 |
| Cc1ccc2c(N3CC(C(=O)NCc4ccncc4)C3)nc(-c3ccccc3O)nc2c1 [Example 401, 1-(2-(2-Hydroxyphenyl)-7-methylquinazolin-4-yl)-N-((pyridin-4-yl)methyl)azetidine-3-carboxamide] | > 10 |
| Cc1ccc2c(N3CCC(NC(=O)C(O)CC(C)C)CC3)nc(-c3ccccc3O)nc2c1 (stereo not drawn) [Example 265] | > 10 |
| Cc1ccc2c(N3CCC[C@H](CNC(=O)OCC(C)C)C3)nc(-c3ccccc3O)nc2c1 [Example 253, Isobutyl ((R)-1-(2-(2-hydroxyphenyl)-7-methylquinazolin-4-yl)piperidin-3-yl)methylcarbamate] | > 10 |
| Cc1ccc2c(N3CC[C@H](CNC(=O)O[C@H]4CCOC4)C3)nc(-c3ccccc3O)nc2c1 [Example 307, (S)-Tetrahydrofuran-3-yl ((R)-1-(2-(2-hydroxyphenyl)-7-methylquinazolin-4-yl)pyrrolidin-3-yl)methylcarbamate] | > 10 |
| CCC(O)(CC)C(=O)NC1CCN(c2nc(-c3ccccc3O)nc3ccccc23)CC1 [Example 240, 2-Ethyl-2-hydroxy-N-(1-(2-(2-hydroxyphenyl)quinazolin-4-yl)piperidin-4-yl)butanamide] | > 10 |
| Cc1ccc2c(N3CC[C@@H](NC(=O)c4cccc(C#N)c4)C3)nc(-c3ccccc3O)nc2c1 [Example 327, 3-Cyano-N—((R)-1-(2-(2-hydroxyphenyl)-7-methylquinazolin-4-yl)pyrrolidin-3-yl)benzamide] | > 10 |
| Cc1ccc2c(N3CCC[C@@H](CNC(=O)C4CC4)C3)nc(-c3ccccc3O)nc2c1 [Example 226, N—(((S)-1-(2-(2-Hydroxyphenyl)-7-methylquinazolin-4-yl)piperidin-3-yl)methyl)cyclopropanecarboxamide] | > 10 |
| CCC(C)(O)CC(=O)N1CCN(c2nc(-c3ccccc3O)nc3cc(C)ccc23)CC1 (stereo not drawn) [Example 181] | > 10 |
| Cc1ccc2c(N3CCN(C(=O)[C@H](O)CC(C)C)CC3)nc(-c3c(O)cccc3F)nc2c1 [Example 147, (R)-1-(4-(2-(2-Fluoro-6-hydroxyphenyl)-7-methylquinazolin-4-yl)piperazin-1-yl)-2-hydroxy-4-methylpentan-1-one] | 2 to 10 |
| Cc1ccc2c(N3CC[C@@H](NC(=O)C4CCC(=O)N4)C3)nc(-c3ccccc3O)nc2c1 (stereo partly drawn) [Example 315, (R)-5-Oxo-pyrrolidine-2-carboxylic acid {1-[2-(2-hydroxy-phenyl)-7-methyl-quinazolin-4-yl]-pyrrolidin-3-yl}-amide] | > 10 |
| CCOC(=O)NC[C@@H]1CCCN(c2nc(-c3c(O)cccc3F)nc3cc(C)ccc23)C1 [Example 262, Ethyl ((S)-1-(2-(2-fluoro-6-hydroxyphenyl)-7-methylquinazolin-4-yl)piperidin-3-yl)methylcarbamate] | 2 to 10 |
| Cc1ccc2c(N3CCN(C(=O)O[C@H]4CCOC4)CC3CO)nc(-c3ccccc3O)nc2c1 (stereo partly drawn) [Example 119, (S)-3-Hydroxymethyl-4-[2-(2-hydroxyphenyl)-7-methyl-quinazolin-4-yl]-piperazine-1-carboxylic acid tetrahydro-furan-3-yl ester] | > 10 |
| Cc1ccc2c(N3CC[C@H](NC(=O)O[C@H]4CCOC4)C3)nc(-c3ccccc3O)nc2c1 [Example 304, (S,S)-{1-[2-(2-Hydroxy-phenyl)-7-methyl-quinazolin-4-yl]-pyrrolidin-3-yl}-carbamic acid tetrahydro-furan-3-yl ester] | > 10 |
| CSCCC(O)C(=O)N1CCN(c2nc(-c3ccccc3O)nc3cc(C)ccc23)CC1 (stereo not drawn) [Example 153, 2-Hydroxy-1-(4-(2-(2-hydroxyphenyl)-7-methylquinazolin-4-yl)piperazin-1-yl)-4-(methylthio)butan-1-one] | 2 to 10 |
| Cc1ccc2c(N3CCC[C@H](NC(=O)O[C@@H]4CCOC4)C3)nc(-c3ccccc3O)nc2c1 [Example 203, (R)-Tetrahydrofuran-3-yl (S)-1-(2-(2-hydroxyphenyl)-7-methylquinazolin-4-yl)piperidin-3-ylcarbamate] | > 10 |
| Cc1ccc2c(N3CC(CNC(=O)OCC(C)C)C3)nc(-c3ccccc3O)nc2c1 [Example 418] | 2 to 10 |
| COCCOC(=O)NC[C@@H]1CCCN(c2nc(-c3ccccc3O)nc3cc(C)ccc23)C1 [Example 257, 2-Methoxyethyl ((S)-1-(2-(2-hydroxyphenyl)-7-methylquinazolin-4-yl)piperidin-3-yl)methylcarbamate] | 2 to 10 |
| CCCCC(O)C(=O)N1CCN(c2nc(-c3ccccc3O)nc3ccccc23)CC1 (stereo not drawn) [Example 159, 2-Hydroxy-1-(4-(2-(2-hydroxyphenyl)quinazolin-4-yl)piperazin-1-yl)hexan-1-one] | 2 to 10 |
| Cc1ccc2c(N3CCC(NC(=O)[C@H]4CCCO4)C3)nc(-c3ccccc3O)nc2c1 (stereo in doubt) [Example 303, (2R)-Tetrahydro-N—((S)-1-(2-(2-hydroxyphenyl)-7-methylquinazolin-4-yl)pyrrolidin-3-yl)furan-2-carboxamide] | 2 to 10 |
| Cc1ccc2c(N3CCN(C(=O)[C@H](O)C(F)(F)F)CC3)nc(-c3ccccc3O)nc2c1 [Example 177, (S)-3,3,3-Trifluoro-2-hydroxy-1-(4-(2-(2-hydroxyphenyl)-7-methylquinazolin-4-yl)piperazin-1-yl)propan-1-one] | 2 to 10 |

The remaining lines, values ahead:

| IC50 [µM] | Structure (SMILES) |
| --- | --- |
| < 2 | Cc1ccc2c(N3CCN(C(=O)[C@H](O)CC(C)(C)C)CC3)nc(-c3c(O)cccc3F)nc2c1 [Example 135, (R)-1-(4-(2-(2-Fluoro-6-hydroxyphenyl)-7-methylquinazolin-4-yl)piperazin-1-yl)-2-hydroxy-4,4-dimethylpentan-1-one] |
| 2 to 10 | Cc1ccc2c(N3CC[C@@H](CNC(=O)OC(C)C)C3)nc(-c3ccccc3O)nc2c1 [Example 368, Isopropyl ((S)-1-(2-(2-hydroxyphenyl)-7-methylquinazolin-4-yl)pyrrolidin-3-yl)methylcarbamate] |
| < 2 | Cc1ccc2c(N3CCN(C(=O)C(C)(C)C)CC3)nc(-c3ccccc3O)nc2c1 [Example 196] |
| 2 to 10 | CCCOC(=O)NC[C@@H]1CCCN(c2nc(-c3ccccc3O)nc3cc(C)ccc23)C1 [Example 256, Propyl ((S)-1-(2-(2-hydroxyphenyl)-7-methylquinazolin-4-yl)piperidin-3-yl)methylcarbamate] |
| < 2 | Cc1ccc2c(N3CCN(C(=O)CCC4CCCC4)CC3)nc(-c3ccccc3O)nc2c1 [Example 127, 3-Cyclopentyl-1-(4-(2-(2-hydroxyphenyl)-7-methylquinazolin-4-yl)piperazin-1-yl)propan-1-one] |
| 2 to 10 | O=C(C1CC1)N1CCN(c2nc(-c3ccccc3O)nc3ccc(F)cc23)CC1 [Example 192] |
| 2 to 10 | O=C(N[C@@H]1CCN(c2nc(-c3ccccc3O)nc3ccc(F)cc23)C1)O[C@H]1CCOC1 [Example 335, (S)-Tetrahydrofuran-3-yl (R)-1-(6-fluoro-2-(2-hydroxyphenyl)quinazolin-4-yl)pyrrolidin-3-ylcarbamate] |
| 2 to 10 | Cc1ccc2c(N3CCN(C(=O)[C@H]4CCCO4)CC3)nc(-c3ccccc3O)nc2c1 [Example 187] |
| 2 to 10 | Cc1ccc2c(N3CCN(C(=O)OCc4ccncc4)CC3)nc(-c3c(O)cccc3F)nc2c1 [Example 114, (Pyridin-4-yl)methyl 4-(2-(2-fluoro-6-hydroxyphenyl)-7-methylquinazolin-4-yl)piperazine-1-carboxylate] |
| 2 to 10 | CCCC(O)C(=O)N1CCN(c2nc(-c3ccccc3O)nc3cc(C)ccc23)CC1 (stereo not drawn) [Example 134, 2-Hydroxy-1-(4-(2-(2-hydroxyphenyl)-7-methylquinazolin-4-yl)piperazin-1-yl)pentan-1-one] |
| 2 to 10 | Cc1ccc2c(N3CCC(NC(=O)[C@H](O)CC(C)(C)C)CC3)nc(-c3ccccc3O)nc2c1 [Example 232, (2R)-2-Hydroxy-N-(1-(2-(2-hydroxyphenyl)-7-methylquinazolin-4-yl)piperidin-4-yl)-4,4-dimethylpentanamide] |
| 2 to 10 | CCC(O)(CC)C(=O)N1CCN(c2nc(-c3ccccc3O)nc3cc(C)ccc23)CC1 [Example 122, 2-Ethyl-2-hydroxy-1-(4-(2-(2-hydroxyphenyl)-7-methylquinazolin-4-yl)piperazin-1-yl)butan-1-one] |
| 2 to 10 | Cc1ccc2c(N3CCC(CNC(=O)OC(C)C)CC3)nc(-c3ccccc3O)nc2c1 [Example 279] |
| < 2 | Cc1ccc2c(N3CCC(NC(=O)[C@H]4CCCO4)CC3)nc(-c3ccccc3O)nc2c1 [Example 283] |
| < 2 | Cc1ccc2c(N3CCC(NC(=O)OCC4CCCCO4)CC3)nc(-c3ccccc3O)nc2c1 (stereo not drawn) [Example 219, {1-[2-(2-Hydroxy-phenyl)-7-methyl-quinazolin-4-yl]-piperidin-4-yl}-carbamic acid tetrahydro-pyran-2-ylmethyl ester] |
